No end group written: not given here.
How the values were obtained:
[1] = test system: CD4 and CD8 T cells; conditions: cited from earlier work
From the text: Expectedly, sections from control groups were negative for all the markers tested except rare CD11b^+ cells.

[2] = test system: serum antibodies (Igs and isotypes) of immunized mice; assay: ELISA, antibodies that react with β1ARAc peptides; type: in vivo, A/J mice; conditions: serum 1:100, day 21, OD 405 nm; for Antibody response, total Igs (in words): five animals per group
Experimental: ELISA was used to measure antibodies that react with β1ARAc peptides in the serum samples collected from immunized animals at termination on day 21 as described previously ([26]). […] After washing/blocking, serum samples (1:100) were added in duplicates, and the plates were incubated at 37°C for 1 h followed by addition of HRP-labeled goat anti-mouse immunoglobulins (Igs), IgG1, IgG2a, IgG2b, IgG3, IgM, IgA, and IgE (Southern Biotech, Birmingham, AL, USA) as secondary antibodies. Two hours after incubation at RT, 1 × tetramethylbenzidine solution was added as a substrate (eBioscience), and reactions were stopped using 1 M phosphoric acid. The plates were read at 405 nm using an automated ELISA reader (BioTek instruments, Winooski, VT, USA) to measure OD values ([26], [46]).

[3] = test system: A/J mice (hearts); assay: Induction of myocarditis by active immunization with peptides (histology); type: in vivo
[4] = test system: T cells (lymph node cells/splenocytes from immunized animals); assay: T cell proliferation assay ([3H]-thymidine); type: cell-based, A/J mice; conditions: for T cell responses (in words): proliferation, 0–100 µg/ml, 2 days + 16 h [3H]-thymidine, cpm; for T cell responses: fold vs medium control
Experimental: At termination, lymph nodes (maxillary, mandibular, axillary, inguinal, and popliteal) and spleens were harvested from immunized animals to prepare single cell suspensions. Similarly, splenocytes were prepared from naive animals. After lysing the erythrocytes and washing, cell pellets were suspended in RPMI medium containing 10% fetal bovine serum, 1 mM sodium pyruvate, 4 mM L-glutamine, 1 × each of non-essential amino acids and vitamin mixture, and 100 U/ml penicillin–streptomycin (Lonza, Walkersville, MD, USA; hereafter called growth medium). In some experiments, CD4 T cells and CD8 T cells were enriched to a purity of ~95% by negative selection based on magnetic separation using IMAG (BD Biosciences, San Jose, CA, USA) ([31]). To stimulate CD4 and CD8 T cells, syngeneic naive irradiated splenocytes loaded with peptides were used as antigen-presenting cells at a ratio of 1:1. Cells were stimulated at a density of ~5 × 10^6 cells/ml in triplicates with or without the immunizing peptides (0–100 µg/ml) in growth medium. RNase 43–56 or HEL 46–61 were used as irrelevant controls. After 2 days, cells were pulsed with tritiated ^3[H]-thymidine (1 μCi/well; MP Biomedicals, Santa Ana, CA, USA), and 16 h later, proliferative responses were measured as counts per minute (cpm) using a Wallac liquid scintillation counter (Perkin Elmer, Waltham, MA, USA) ([26], [28], [30]).

[5] = target: T1, IA^k (Mus musculus, UniProt P01910+P06343); assay: MHC class II-binding assay, IA^k; set-up: species or system A/J mice; conditions: soluble IA^k monomers, reference HEL 46–61; Figure S1B
T1 construct: soluble IA^k and IE^k monomers were expressed; class II-associated invariant-chain peptide (CLIP) 88–102 (VSQMRMATPLLMRPM) with thrombin cleavage site (cleaved yes); made in house; host or cells: baculovirus expression (sf9 cells are named only for the IA^k dextramer constructs)
T1 sequence (P01910 24-218 limits assumed): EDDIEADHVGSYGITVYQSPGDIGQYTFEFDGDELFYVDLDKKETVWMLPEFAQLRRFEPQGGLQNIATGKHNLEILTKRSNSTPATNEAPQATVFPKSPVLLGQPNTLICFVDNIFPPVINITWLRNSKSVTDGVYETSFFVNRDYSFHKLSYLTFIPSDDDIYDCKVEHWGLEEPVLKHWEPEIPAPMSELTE
T1 sequence (P06343 28-224 limits assumed): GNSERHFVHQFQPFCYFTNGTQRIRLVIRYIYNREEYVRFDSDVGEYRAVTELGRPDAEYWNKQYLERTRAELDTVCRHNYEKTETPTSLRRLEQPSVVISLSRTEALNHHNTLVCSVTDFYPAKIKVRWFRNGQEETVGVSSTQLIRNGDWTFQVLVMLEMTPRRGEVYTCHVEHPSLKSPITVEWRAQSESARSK
Experimental: A/J mice express two MHC class II alleles, IA^k and IE^k ([33], [34]), and to determine the affinities of β1AR peptides, soluble IA^k and IE^k monomers were expressed ([34], [35]). In brief, the β-chain in each of IA^k and IE^k constructs contain sequence for class II-associated invariant-chain peptide 88–102 (VSQMRMATPLLMRPM) linked with thrombin cleavage site ([34], [35]). After expressing in the baculovirus, soluble IA^k and IE^k monomers were treated with thrombin (20 U/mg; Novagen, Madison, WI, USA) to release class II-associated invariant-chain peptide leading us to obtain empty IA^k and IE^k molecules. Reaction mixtures were prepared to include empty IA^k or IE^k monomers (0.35 µg), competitor peptides (β1ARAc 171–190, β1ARAc 181–200, β1ARAc 201–220, and β1ARAc 211–230) (0.00001–100 µM), and constant amounts of the biotinylated reference peptides HEL 46–61 (for IA^k) or MCC 82–103 (for IE^k) (1 µM) in a buffer containing 50 mM sodium phosphate pH 7.0, 100 mM sodium chloride, 1 mM EDTA, and 1 × protease inhibitor (Sigma-Aldrich, St. Louis, MO, USA) ([36]–[38]). After incubating overnight at RT, the mixtures were transferred to 96-well white fluorescence plates coated with anti-IA^k (clone 10-2.16, BioXcell, West Lebanon, NH, USA), and anti-IE^k (clone M5/114, BioXcell) Abs (10 µg/ml) in 0.2 M sodium phosphate buffer, pH 6.8, blocked with 2% bovine casein; and the plates were incubated on a rocker at RT for 1 h. Finally, after adding 100 µl of europium-labeled streptavidin (0.1 µg/ml) and dissociation-enhanced lanthanide fluoroimmunoassay (DELFIA) enhancement solution (Perkin Elmer) sequentially, fluorescence intensities were measured at excitation/emission wavelengths of 340/615 nm using a Victor Multilabel Plate Reader (Perkin Elmer). The IC50 values were determined based on the concentrations of competitor peptides needed to prevent 50% binding of the reference peptides as we have described previously ([26], [28], [30]).

[6] = test system: CD4 T cells; assay: IA^k dextramer staining of CD4 T cells; type: cell-based, A/J mice; conditions: IA^k dextramers
From the text: To enumerate the frequencies of antigen-specific CD4 T cells, we created IA^k dextramers for β1AR 171-190 and β1AR 211–230, and IE^k dextramers for β1AR 181–200. To create IA^k dextramers, the nucleotide sequence for β1AR 171–190 ([…]) and β1AR 211–230 ([…]) was inserted into the IA^k-β construct that we had described previously ([35], [39]), whereas IA^k/RNase 43–56 (control) dextramers were readily available in our laboratory ([30], [35], [40]). The soluble, IA^k/β1AR 171–190 and IA^k/β1AR 211–230 molecules were expressed in sf9 cells using baculovirus expression system. After purifying through anti-IA^k-affinity column, the IA^k/β1AR 171–190 and IA^k/β1AR 211–230 monomers were biotinylated and dextramers were derived using streptavidin (SA)/fluorophore-conjugated dextran molecules as described previously ([35], [39]). […]
To stain with dextramers, lymphocytes obtained from lymph nodes and spleens from immunized animals were stimulated with the immunizing peptides namely, β1ARAc 171–190, β1ARAc 181–200, and β1ARAc 211–230 (20 µg/ml) for 2 days and growth medium containing interleukin (IL)-2 (IL-2 medium) was then added. […] After washing, and acquisition by flow cytometry, percent dextramer^+ (dext^+) cells were analyzed within the live cells (7-AAD^−) using Flow Jo software ([34], [35], [39]).

[7] = acetylated peptides in CFA/PT (100 µg individually, 50 µg each when pooled), days 0 and 7, day 21

Question: For “Myhc 334–352: cardiac myosin heavy chain-α 334–352 (DSAFDVLSFTAEEKAGVYK; UniProt Q02566 334-352, looked up, fragment)”, which “Common epitope for CD4 and CD8 T cells (in words)” value (“Common epitope” for short) [1] is on record?
Answer: common epitopes for both CD4 and CD8 T cells

Question: For “myelin oligodendrocyte glycoprotein 35–55: CD4 and CD8 common epitope (MEVGWYRSPFSRVVHLYRNGK; UniProt Q61885 63-83, looked up, fragment)”, which “Common epitope” value [1] is on record?
Answer: common epitopes for both CD4 and CD8 T cells

Question: With “interphotoreceptor retinoid-binding protein 1–20: CD4 and CD8 common epitope (GPTHLFQPSLVLDMAKVLLD; UniProt P10745 18-37, looked up, fragment)” as the substance, how does the “Common epitope” value [1] read?
Answer: common epitopes for both CD4 and CD8 T cells

Question: For “β1ARAc 191–210: N-terminal acetylated mouse β1-adrenergic receptor peptide 191–210 (Ac-FLPILMHWWRAESDEARRCY; UniProt P34971 191-210, looked up, fragment)”, which “Antibody response, total Igs (in words)” value [2] is on record?
Answer: to some degree

Question: What about the Myocarditis incidence [3, 7] of the same substance?
Answer: 0%

Question: What about the “Myocarditis incidence (animals with disease/total)” value [3, 7] of the same substance?
Answer: 0/5

Question: What about the Inflammatory foci ([3]; acetylated peptides in CFA/PT, mean ± SEM of myocarditic animals, day 21) of the same substance?
Answer: 0

Question: What about the “T cell responses (in words)” value [4] of the same substance?
Answer: non-T cell activators

Question: With “β1ARAc 201–220: N-terminal acetylated mouse β1-adrenergic receptor peptide 201–220 (Ac-AESDEARRCYNDPKCCDFVT; cysteine pairing not given here; UniProt P34971 201-220, looked up, fragment)” as the substance, how does the “Antibody isotypes produced, IgG and IgM (in words)” value [2] read?
Answer: all IgG isotypes (IgG1, IgG2a, IgG2b, IgG3) including IgM

Question: What about the “Antibody response, total Igs (in words)” value [2] of the same substance?
Answer: antibody response

Question: And the “IA^k binding (in words)” value [5]?
Answer: failed to bind IA^k molecule

Question: What about the “Myocarditis induction (in words)” value ([3]; acetylated peptide, standard CFA/PT protocol) of the same substance?
Answer: failed to induce myocarditis

Question: What about the “T cell responses (in words)” value [4] of the same substance?
Answer: non-T cell activators

Question: Which “Antibody response, total Igs (in words)” value [2] does the source give for “VNTFVHESLADVQA [RNase 43–56, bovine ribonuclease 43–56, irrelevant control, reference compound]” here?
Answer: lacking

Question: What about the T cell responses ([4]; 10 μg/ml, animals immunized with pool I) of the same substance?
Answer: 1.05 fold

Question: What about the T cell responses ([4]; 10 μg/ml, animals immunized with pool II) of the same substance?
Answer: 1.06 fold

Question: And the T cell responses ([4]; 10 μg/ml, animals immunized with pool III)?
Answer: 1.04 fold

Question: What about the T cell responses ([4]; 10 μg/ml, animals immunized with pool IV) of the same substance?
Answer: 1.06 fold

Question: And the T cell responses ([4]; 10 μg/ml, animals immunized with pool IX)?
Answer: 0.80 fold

Question: And the T cell responses ([4]; 10 μg/ml, animals immunized with pool V)?
Answer: 1.06 fold

Question: What about the T cell responses ([4]; 10 μg/ml, animals immunized with pool VI) of the same substance?
Answer: 0.73 fold

Question: And the T cell responses ([4]; 10 μg/ml, animals immunized with pool VII)?
Answer: 1.16 fold

Question: What about the T cell responses ([4]; 10 μg/ml, animals immunized with pool VIII) of the same substance?
Answer: 0.91 fold

Question: What about the T cell responses ([4]; 100 μg/ml, animals immunized with pool I) of the same substance?
Answer: 1.42 fold

Question: What about the T cell responses ([4]; 100 μg/ml, animals immunized with pool II) of the same substance?
Answer: 1.20 fold

Question: And the T cell responses ([4]; 100 μg/ml, animals immunized with pool III)?
Answer: 1.14 fold

Question: What about the T cell responses ([4]; 100 μg/ml, animals immunized with pool IV) of the same substance?
Answer: 1.15 fold

Question: What about the T cell responses ([4]; 100 μg/ml, animals immunized with pool IX) of the same substance?
Answer: 0.83 fold

Question: What about the T cell responses ([4]; 100 μg/ml, animals immunized with pool V) of the same substance?
Answer: 1.14 fold

Question: What about the T cell responses ([4]; 100 μg/ml, animals immunized with pool VI) of the same substance?
Answer: 1.10 fold

Question: And the T cell responses ([4]; 100 μg/ml, animals immunized with pool VII)?
Answer: 1.16 fold

Question: And the T cell responses ([4]; 100 μg/ml, animals immunized with pool VIII)?
Answer: 0.81 fold

Question: What about the “T cell responses (in words)” value [4] of the same substance?
Answer: lacking

Question: What about the “percent dext^+ CD4^high T cells” value ([6]; cells from β1ARAc 171–190-immunized mice, P = 0.049 vs control dextramer, Figure 4A) of the same substance?
Answer: 0.52 ± 0.08%

Question: What about the “percent dext^+ CD4^high T cells” value ([6]; cells from β1ARAc 211–230-immunized mice, P = 0.0003 vs control dextramer, Figure 4C) of the same substance?
Answer: 0.12 ± 0.01%

Source: publication PMC5701947, “β1-Adrenergic Receptor Contains Multiple IA^k and IE^k Binding Epitopes That Induce T Cell Responses with Varying Degrees of Autoimmune Myocarditis in A/J Mice” (Frontiers in Immunology, 2017)
